In patent US20260098061A1, “EPHA2-BINDING PENDING PEPTIDE AND COMPOSITION COMPRISING SAME” (PeptiDream Inc., priority 2022, published 2026) one finds Kd data, which are given here for 12 molecules.

Numbered stars: 1 amine (or outer) side, 2 acyl side, 3 side chain; on linkers, the order of the positions; unused ones are H or OH. Bridge positions count the residues as written; N and C are the ends. Square brackets hold non-standard residues; d marks the D form. Side chains are listed from the residue outwards. Peptide text beside a SMILES is read from it. * marks the point of attachment. X1 = CC(C)C[C@H](CC(=O)[C@H](CC(N)=O)N[*:1])C(=O)[*:2]; Trp(1-Me,7-Cl) = Cn1cc(C[C@H](N)C(=O)O)c2cccc(Cl)c21; dPhe(3-CONH2) = NC(=O)c1cccc(C[C@@H](N)C(=O)O)c1; NMePhe(4-Cl) = CN[C@@H](Cc1ccc(Cl)cc1)C(=O)O; Piperazinyl(4-CH2COOH) = O=C(O)CN1CCN(*)CC1; Trp(1-Me) = Cn1cc(C[C@H](N)C(=O)O)c2ccccc21; 3Pal(6-NH2) = Nc1ccc(C[C@H](N)C(=O)O)cn1; NMe3Pal = CN[C@@H](Cc1cccnc1)C(=O)O; NMeF = CN[C@@H](Cc1ccccc1)C(=O)O; hCit = NC(=O)NCCCC[C@H](N)C(=O)O; 4Pal = N[C@@H](Cc1ccncc1)C(=O)O; Gly(cBu) = N[C@H](C(=O)O)C1CCC1; NMeE = CN[C@@H](CCC(=O)O)C(=O)O; Aad = N[C@@H](CCCC(=O)O)C(=O)O; NMeN = CN[C@@H](CC(N)=O)C(=O)O; Chg = N[C@H](C(=O)O)C1CCCCC1; CO = O=C([*:1])[*:2]; βAla = NCCC(=O)O

The target of the test is T1, Recombinant Human EphA2 Fc Protein (Homo sapiens, UniProt P29317).
T1 construct: purchased Elabscience
The test is described as follows: SPR interaction analysis (Biacore T200), kinetics of peptides against EphA2. The format is binding. To be noted: Recombinant Human EphA2 Fc Protein captured by Human Antibody Capture kit; single-cycle kinetics; 25° C.; HBS-P+ buffer with 1% DMSO. The protocol:
Example 14 Interaction Analysis by SPR was Performed Using Biacore (Cytiva)
SPR assay was performed using Biacore T200 (Cytiva).
The HBS-P+ buffer (10 mM HEPES (pH7.4), 150 mM NaCl, 0.05% (v/V) Surfactant P20) containing 1% DMSO was used as running buffer. Recombinant Human EphA2 Fc Protein (Fc tag, Elabscience) was captured by Human Antibody Capture kit (Cytiva). Peptide samples in DMSO were diluted with running buffer, and prepared five serial dilutions. Using these serial dilutions, kinetics of peptides against EphA2 was measured at a flow rate of 30 mL/min at 25° C. The method adopted for sample measurement was a single-cycle kinetics method. The analysis was conducted using the evaluation software 3.0 provided with Biacore T200. Kinetics fitting was done on the difference data obtained by subtracting the baseline data from sample measurement data. KD values were calculated based on the association rate constant (ka) and dissociation rate constant (kd).
On the technique in general: Surface plasmon resonance follows binding to a sensor surface in real time, without labels.
For `CC(C)C[C@@H]1NC(=O)[C@H](CC(N)=O)NC(=O)[C@H](Cc2c[nH]cn2)NC(=O)[C@H](Cc2ccccc2)NC(=O)CSC[C@@H](C(N)=O)NC(=O)[C@H](Cc2cn(C)c3ccccc23)NC(=O)[C@H](CCCCNC(N)=O)NC(=O)[C@H](Cc2cn(C)c3ccccc23)NC(=O)[C@H](Cc2ccccc2)N(C)C(=O)[C@H](CO)NC1=O` [PDC_EphA2-00022417, F-H-N-L-S-MeF-W1Me-Hcit-W1Me-C-NH2] ({CH2CO}-FHNLS[NMeF][Trp(1-Me)][hCit][Trp(1-Me)]C-NH2; thioether N-10), the Kd was 10 to 100 nM.
The value for `CC(=O)NCCCC[C@@H](NC(=O)CCNC(=O)[C@@H]1CSCC(=O)N[C@H](CCCCNC(=O)N2CCN(CC(=O)O)CC2)C(=O)N(C)[C@@H](Cc2cccnc2)C(=O)N[C@@H](CC(N)=O)C(=O)N[C@@H](CC(C)C)C(=O)N[C@@H](CCCCNC(=O)N2CCN(CC(=O)O)CC2)C(=O)N(C)[C@@H](Cc2ccccc2)C(=O)N[C@@H](Cc2cn(C)c3ccccc23)C(=O)N[C@@H](C(C)C)C(=O)N[C@@H](Cc2cn(C)c3ccccc23)C(=O)N[C@@H]([C@@H](C)O)C(=O)N[C@@H](CCCC(N)=O)C(=O)N1)C(N)=O` [PDC_EphA2-00008086, dkCOpipzaa-Me3Py-N-L-KCOpipzaa-MeF-W1Me-V-W1Me-T-Hgn-C-bA-dkAc-NH2] ({CH2CO}-[dK]([CO-Piperazinyl(4-CH2COOH)])[NMe3Pal]NLK([CO-Piperazinyl(4-CH2COOH)])[NMeF][Trp(1-Me)]V[Trp(1-Me)]T[Aad](NH2)C[βAla][dK](Ac)-NH2; thioether N-12) was less than 1 nM; that for `C[C@H]1NC(=O)CSC[C@@H](C(N)=O)NC(=O)[C@H](CCCC(N)=O)NC(=O)[C@H]([C@@H](C)O)NC(=O)[C@H](Cc2cn(C)c3ccccc23)NC(=O)[C@H](CCCCNC(=O)N2CCN(CC(=O)O)CC2)NC(=O)[C@H](Cc2cn(C)c3ccccc23)NC(=O)[C@H](Cc2ccc(Cl)cc2)N(C)C(=O)[C@H](CCCC(N)=O)NC(=O)[C@H](C2CCCCC2)NC(=O)[C@H](CC(N)=O)NC(=O)[C@H](Cc2cccnc2)N(C)C1=O` [PDC_EphA2-00018538, da-Me3Py-N-Chg-Hgn-MeF4C-W1Me-KCOpipzaa-W1Me-T-Hgn-C-NH2] ({CH2CO}-[dA][NMe3Pal]N[Chg][Aad](NH2)[NMePhe(4-Cl)][Trp(1-Me)]K([CO-Piperazinyl(4-CH2COOH)])[Trp(1-Me)]T[Aad](NH2)C-NH2; thioether N-12) was less than 1 nM.
`C[C@H]1NC(=O)CSC[C@@H](C(N)=O)NC(=O)[C@H](CCCC(N)=O)NC(=O)[C@H]([C@@H](C)O)NC(=O)[C@H](Cc2cn(C)c3ccccc23)NC(=O)[C@H](CCCCNC(=O)N2CCN(CC(=O)O)CC2)NC(=O)[C@H](Cc2cn(C)c3ccccc23)NC(=O)[C@H](CCC(=O)O)N(C)C(=O)[C@H](CCCC(=O)O)NC(=O)[C@H](C2CCC2)NC(=O)[C@H](CC(N)=O)NC(=O)[C@H](Cc2cccnc2)N(C)C1=O` [PDC_EphA2-00010007, da-Me3Py-N-Cbg-Hgl-MeE-W1Me-KCOpipzaa-W1Me-T-Hgn-C-NH2] ({CH2CO}-[dA][NMe3Pal]N[Gly(cBu)][Aad][NMeE][Trp(1-Me)]K([CO-Piperazinyl(4-CH2COOH)])[Trp(1-Me)]T[Aad](NH2)C-NH2; thioether N-12): the Kd is less than 1 nM.
With `CC(C)[C@@H]1NC(=O)[C@H](Cc2cn(C)c3c(Cl)cccc23)NC(=O)[C@H](CC(N)=O)N(C)C(=O)[C@H](CCCC(N)=O)NC(=O)[C@H](C2CCC2)NC(=O)[C@H](CC(N)=O)NC(=O)[C@H](Cc2cccnc2)N(C)C(=O)[C@@H](Cc2cccc(C(N)=O)c2)NC(=O)CSC[C@@H](C(N)=O)NC(=O)[C@H](CCCC(N)=O)NC(=O)[C@H]([C@@H](C)O)NC(=O)[C@H](Cc2cn(C)c3ccccc23)NC1=O` [PDC_EphA2-00019424, df3CON-Me3Py-N-Cbg-Hgn-MeN-W1Me7Cl-V-W1Me-T-Hgn-C-NH2] ({CH2CO}-[dPhe(3-CONH2)][NMe3Pal]N[Gly(cBu)][Aad](NH2)[NMeN][Trp(1-Me,7-Cl)]V[Trp(1-Me)]T[Aad](NH2)C-NH2; thioether N-12), the dissociation constant Kd is less than 1 nM.
On to `C[C@@H]1SCC(=O)N[C@H](Cc2cccc(C(N)=O)c2)C(=O)N(C)[C@@H](Cc2cccnc2)C(=O)N[C@@H](CC(N)=O)C(=O)N[C@@H](C2CCC2)C(=O)N[C@@H](CCCC(N)=O)C(=O)N(C)[C@@H](CCC(=O)O)C(=O)N[C@@H](Cc2cn(C)c3c(Cl)cccc23)C(=O)N[C@@H](CCCCNC(=O)N2CCN(CC(=O)O)CC2)C(=O)N[C@@H](Cc2cn(C)c3ccccc23)C(=O)N[C@@H]1C(N)=O` [PDC_EphA2-00026610, df3CON-Me3Py-N-Cbg-Hgn-MeE-W1Me7Cl-KCOpipzaa-W1Me-C3SMe-NH2], for which the Kd was in the range of 1 to 10 nM.
For `CC(=O)NCCCC[C@@H](NC(=O)CCNC(=O)[C@@H]1CSCC(=O)N[C@H](CCCCNC(=O)N2CCN(CC(=O)O)CC2)C(=O)N(C)[C@@H](Cc2cccnc2)C(=O)N[C@@H](CC(N)=O)C(=O)N[C@@H](CC(C)C)C(=O)N[C@@H](CCCC(=O)O)C(=O)N(C)[C@@H](Cc2ccccc2)C(=O)N[C@@H](Cc2cn(C)c3ccccc23)C(=O)N[C@@H](C(C)C)C(=O)N[C@@H](Cc2cn(C)c3ccccc23)C(=O)N[C@@H]([C@@H](C)O)C(=O)N[C@@H](CCC(=O)O)C(=O)N1)C(N)=O` [PDC_EphA2-00008084, dkCOpipzaa-Me3Py-N-L-Hgl-MeF-W1Me-V-W1Me-T-E-C-bA-dkAc-NH2] ({CH2CO}-[dK]([CO-Piperazinyl(4-CH2COOH)])[NMe3Pal]NL[Aad][NMeF][Trp(1-Me)]V[Trp(1-Me)]TEC[βAla][dK](Ac)-NH2; thioether N-12), the dissociation constant (Kd) lay in the range of 1 to 10 nM.
For the molecule `CC(C)C[C@@H]1NC(=O)[C@H](CC(N)=O)NC(=O)[C@H](Cc2ccncc2)NC(=O)[C@H](Cc2ccccc2)NC(=O)CSC[C@@H](C(=O)NCC(N)=O)NC(=O)[C@H](Cc2cn(C)c3ccccc23)NC(=O)[C@H](Cc2ccc(N)nc2)NC(=O)[C@H](Cc2cn(C)c3ccccc23)NC(=O)[C@H](Cc2ccccc2)N(C)C(=O)[C@H](CCC(=O)O)NC1=O` [PDC_EphA2-00022057-L092, F-4Py-N-L-E-MeF-W1Me-3Py6NH2-W1Me-C-G-NH2] ({CH2CO}-F[4Pal]NLE[NMeF][Trp(1-Me)][3Pal(6-NH2)][Trp(1-Me)]CG-NH2; thioether N-10), the Kd is 10 to 100 nM.
The value for `CC(=O)NCCCC[C@@H](NC(=O)CCNC(=O)[C@@H]1CSCC(=O)N[C@H](C)C(=O)N(C)[C@@H](Cc2cccnc2)C(=O)N[C@@H](CC(N)=O)C(=O)C[C@@H](CC(C)C)C(=O)N[C@@H](CCCC(=O)O)C(=O)N(C)[C@@H](Cc2ccccc2)C(=O)N[C@@H](Cc2cn(C)c3ccccc23)C(=O)N[C@@H](C(C)C)C(=O)N[C@@H](Cc2cn(C)c3ccccc23)C(=O)N[C@@H]([C@@H](C)O)C(=O)N[C@@H](CCC(=O)O)C(=O)N1)C(N)=O` [PDC_EphA2-00008083, da-Me3Py-N-L-Hgl-MeF-W1Me-V-W1Me-T-E-C-bA-dkAc-NH2] ({CH2CO}-[dA][NMe3Pal][X1][Aad][NMeF][Trp(1-Me)]V[Trp(1-Me)]TEC[βAla][dK](Ac)-NH2; thioether N-11) was less than 1 nM; that for `CC(=O)NCCCC[C@@H](NC(=O)CCNC(=O)[C@@H]1CSCC(=O)N[C@H](C)C(=O)N(C)[C@@H](Cc2cccnc2)C(=O)N[C@@H](CC(N)=O)C(=O)N[C@@H](CC(C)C)C(=O)N[C@@H](CCCC(=O)O)C(=O)N(C)[C@@H](Cc2ccccc2)C(=O)N[C@@H](Cc2cn(C)c3ccccc23)C(=O)N[C@@H](CCCCNC(=O)N2CCN(CC(=O)O)CC2)C(=O)N[C@@H](Cc2cn(C)c3ccccc23)C(=O)N[C@@H]([C@@H](C)O)C(=O)N[C@@H](CCC(=O)O)C(=O)N1)C(N)=O` [PDC_EphA2-00008087, da-Me3Py-N-L-Hgl-MeF-W1Me-KCOpipzaa-W1Me-T-E-C-bA-dkAc-NH2] ({CH2CO}-[dA][NMe3Pal]NL[Aad][NMeF][Trp(1-Me)]K([CO-Piperazinyl(4-CH2COOH)])[Trp(1-Me)]TEC[βAla][dK](Ac)-NH2; thioether N-12) was less than 1 nM; that for `C[C@@H](O)[C@@H]1NC(=O)[C@H](Cc2cn(C)c3ccccc23)NC(=O)[C@H](CCCCNC(=O)N2CCN(CC(=O)O)CC2)NC(=O)[C@H](Cc2cn(C)c3c(Cl)cccc23)NC(=O)[C@H](Cc2ccccc2)N(C)C(=O)[C@H](CCCCNC(=O)N2CCN(CC(=O)O)CC2)NC(=O)[C@H](C2CCC2)NC(=O)[C@H](CC(N)=O)NC(=O)[C@H](Cc2cccnc2)N(C)C(=O)[C@@H](Cc2cccc(C(N)=O)c2)NC(=O)CSC[C@@H](C(N)=O)NC(=O)[C@H](CCCC(N)=O)NC1=O` [PDC_EphA2-00019441, df3CON-Me3Py-A-Cbg-KCOpipzaa-MeF-W1Me7Cl-KCOpipzaa-W1Me-T-Hgn-C-NH2] ({CH2CO}-[dPhe(3-CONH2)][NMe3Pal]N[Gly(cBu)]K([CO-Piperazinyl(4-CH2COOH)])[NMeF][Trp(1-Me,7-Cl)]K([CO-Piperazinyl(4-CH2COOH)])[Trp(1-Me)]T[Aad](NH2)C-NH2; thioether N-12) was less than 1 nM.
On to `CC(C)C[C@@H]1NC(=O)[C@H](CC(N)=O)NC(=O)[C@H](Cc2ccccc2)N(C)C(=O)[C@@H](Cc2cccc(C(N)=O)c2)NC(=O)CSC[C@@H](C(N)=O)NC(=O)[C@H](CCCC(N)=O)NC(=O)[C@H]([C@@H](C)O)NC(=O)[C@H](Cc2cn(C)c3ccccc23)NC(=O)[C@H](C(C)C)NC(=O)[C@H](Cc2cn(C)c3c(Cl)cccc23)NC(=O)[C@H](CC(N)=O)N(C)C(=O)[C@H](CCCC(N)=O)NC1=O` [PDC_EphA2-00019422, df3CON-MeF-N-L-Hgn-MeN-W1Me7Cl-V-W1Me-T-Hgn-C-NH2] ({CH2CO}-[dPhe(3-CONH2)][NMeF]NL[Aad](NH2)[NMeN][Trp(1-Me,7-Cl)]V[Trp(1-Me)]T[Aad](NH2)C-NH2; thioether N-12), for which the Kd is less than 1 nM.

The term Kd denotes the free concentration of one partner at which half of the binding sites on the other are occupied at equilibrium, for simple one-to-one binding.
